Results as given in patent US7893037B2, “Pharmaceutical composition and process” (Roche Palo Alto LLC, priority 2007, dated 2011).

How the values were obtained:
[1] = bioavailability / absorption of nucleoside and prodrug; format: in vivo
[2] = system: hepatitis C virus (HCV); conditions: patients infected with hepatitis C virus

bioavailability ([1]; in vivo)	Compound	viral load [2]	absorption ([1]; in vivo)	reversion of prodrug in plasma ([1]; plasma)
insufficient bioavailabilty	[N-]=[N+]=NC1(CO)OC(n2ccc(N)nc2=O)C(O)C1O (stereo not shown) [II, 4-Amino-1-(5-azido-3,4-dihydroxy-5-hydroxymethyl-tetrahydro-furan-2-yl)-1H-pyrimidin-2-one, reference compound]			
	CC(C)C(=O)OC[C@@]1(N=[N+]=[N-])O[C@@H](n2ccc(N)nc2=O)[C@H](OC(=O)C(C)C)[C@@H]1OC(=O)C(C)C.Cl [I, isobutyric acid (2R,3S,4R,5R)-5-(4-amino-2-oxo-2H-pyrimidin-1-yl)-2-azido-3,4-bis-iso-butyryloxy-tetrahydro-furan-2-ylmethyl ester; hydrochloride salt]	decrease the viral load	efficiently absorbed	revert to I in plasma
